Assay results published in patent US20250289786A1, “CHLORINATED MONOCARBONYL CURCUMIN COMPOUNDS, PREPARATION METHOD, AND APPLICATION” (Southwest Medical University, priority 2024, published 2025).

What was measured:
[1] = ABTS free radical capture ability; assay type: biochemical; settings: 20 min reaction in the dark
Experimental: 66.2 mg of K2S2O8 was weighed and placed in a 100 mL volumetric flask, pure water was added to the scale line to prepare a 2.45 mmol/L K2S2O8 solution. 192 mg of ABTS was accurately weighed and placed in a 25 mL volumetric flask, and the newly prepared K2S2O8 solution was added for dissolving and constant volume dilution, after standing in the dark for 20 h, the ABTS mother liquor was obtained. Before use, to make the measured value more accurate, the ABTS mother liquor needs to be diluted with a PBS solution of pH7.4 until the absorbance range of the ABTS working solution at 734 nm is 0.70±0.02.
Drug concentration screening: To avoid the complete removal of free radicals by excessive drug concentration and the inability to compare the ability to capture ABTS free radicals, a preliminary screening of drug concentration is required before the formal test. A gradient concentration of compound solution was prepared, and a gradient concentration of Vit C solution was prepared as a positive control. A total of 450 μL of ABTS working solution was accurately absorbed into a 1.5 mL EP tube, and 150 μL of the gradient solution of each group of drugs was added, after 20 min of reaction in the dark, 150 μL of the reaction solution was taken and placed in a 96-well plate, the absorbance was measured by a microplate reader. Three duplicate wells were set for each concentration, and the drug concentration with absorbance between 0.2-0.7 was selected for subsequent determination.
Determination operation: After the drug concentration screening was completed, 7 concentration gradient groups were set within this concentration range. A total of 450 μL of ABTS working solution was accurately absorbed into a 1.5 mL EP tube, and 150 μL of the gradient solution of each group of drugs was added. After 20 min of reaction in the dark, 150 μL of the reaction solution was taken and placed in a 96-well plate, the absorbance was measured by a microplate reader. Three duplicate wells were set for each concentration, the positive control group was a gradient solution of Vit C, and the blank control group was an equal volume of anhydrous ethanol.

[2] = Solubility detection of CAK01-CAK07; assay type: physicochemical
Source text: The chlorinated monocarbonyl curcumin compounds CAK01-CAK07 prepared under the conditions of Example 1 were taken for nuclear magnetic resonance, mass spectrometry, solubility, and melting point detection.

PC12 cells [3] = assay: MTT toxicity (safety evaluation) on PC12 nerve cells; assay type: cell-based; settings: for cytotoxicity to PC12 cells: 3.75-60 μM, 24 h and 48 h, in words
Experimental: The toxicity of each drug to PC12 cells was determined by MTT assay. The principle of the MTT colorimetric method: there is succinate dehydrogenase in the mitochondria of living cells, which can make exogenous MTT become blue-purple crystal formazan insoluble in water, this phenomenon cannot be observed in dead cells. The blue-purple crystal formazan can be dissolved by DMSO, and the absorbance value is measured by a microplate reader at a wavelength of 490 nm, which in turn reflects the number of living cells. […] The operation method is as follows:
The cells were resuscitated with DMEM high glucose medium containing 10% fetal bovine serum and cultured in a 5% CO2 cell incubator at 37° C., when the cells grew to the logarithmic growth phase, they were inoculated into a 96-well plate and cultured for 24 hours, each well was added with 100 μL of each compound solution at the corresponding gradient concentration (60, 30, 15, 7.5, 3.75 μM), after incubation in the incubator for 24 h or 48 h, 20 μL of MTT was added to continue incubation for 4 h, the supernatant was discarded and 150 μL of DMSO was added to dissolve the blue-purple crystals, after shaking for 10 min, the cell viability was detected by a microplate reader, and classified according to the cytotoxicity standard. The relevant calculation formula is as follows: […]

PC12 cells [4] = assay: Inhibition of H2O2-induced oxidative damage in PC12 cells; assay type: cell-based, rat; settings: for effect on survival of H2O2-damaged PC12 cells: 24 h, in words
Experimental: After 24 hours of incubation in the incubator, the relative proliferation rates of the cells were calculated according to the method under Section 2.1.

PC12 cells [5] = assay: Inhibition of corticosterone (CORT)-induced PC12 cell damage; assay type: cell-based, rat; settings: 24 h; for effect on viability of CORT-damaged PC12 cells: 3.75-60 μM drug with 514.6 μM CORT, in words

| SMILES | IC50 values of ABTS captured [1] [µg/mL] | solubility [2] [mg/100 g] | Rank (cytotoxicity standard) 24 h (PC12 cells [3]; PC12, 3.75 μM) | Relative growth rate (%) 24 h (PC12 cells [3]; PC12, 3.75 μM) [%] | Rank (cytotoxicity standard) 48 h (PC12 cells [3]; PC12, 3.75 μM) | Relative growth rate (%) 48 h (PC12 cells [3]; PC12, 3.75 μM) [%] | Rank (cytotoxicity standard) 24 h (PC12 cells [3]; PC12, 7.5 μM) | Relative growth rate (%) 24 h (PC12 cells [3]; PC12, 7.5 μM) [%] | Rank (cytotoxicity standard) 48 h (PC12 cells [3]; PC12, 7.5 μM) | Relative growth rate (%) 48 h (PC12 cells [3]; PC12, 7.5 μM) [%] | Rank (cytotoxicity standard) 24 h (PC12 cells [3]; PC12, 15 μM) | Relative growth rate (%) 24 h (PC12 cells [3]; PC12, 15 μM) [%] | Rank (cytotoxicity standard) 48 h (PC12 cells [3]; PC12, 15 μM) | Relative growth rate (%) 48 h (PC12 cells [3]; PC12, 15 μM) [%] | Rank (cytotoxicity standard) 24 h (PC12 cells [3]; PC12, 30 μM) | Relative growth rate (%) 24 h (PC12 cells [3]; PC12, 30 μM) [%] | Rank (cytotoxicity standard) 48 h (PC12 cells [3]; PC12, 30 μM) | Relative growth rate (%) 48 h (PC12 cells [3]; PC12, 30 μM) [%] | Rank (cytotoxicity standard) 24 h (PC12 cells [3]; PC12, 60 μM) | Relative growth rate (%) 24 h (PC12 cells [3]; PC12, 60 μM) [%] | further results |
| --- | --- | --- | --- | --- | --- | --- | --- | --- | --- | --- | --- | --- | --- | --- | --- | --- | --- | --- | --- | --- | --- |
| O=C1O[C@H]([C@@H](O)CO)C(O)=C1O [Vit C, ascorbic acid, reference compound] | 54.54 | – | – | – | – | – | – | – | – | – | – | – | – | – | – | – | – | – | – | – | – |
| COc1cc(/C=C2\CN(C)C/C(=C\c3cc(Cl)c(O)c(OC)c3)C2=O)cc(Cl)c1O [CAK07, 3,5-bis ((E)-3-chloro-4-hydroxy-5-methoxybenzylidene)-1-methylpiperidin-4-one] | 197.3 | 34.77 | 1 | 99.04 ± 1.89 | 1 | 82.45 ± 2.34 | 1 | 76.49 ± 0.75 | 3 | 46.41±0.69 | 2 | 60.78±0.55 | 3 | 30.99 ± 0.02 | 2 | 53.24 ± 0.51 | 3 | 30.46 ± 0.54 | 3 | 49.53 ± 0.31 | cytotoxicity to PC12 cells (PC12 cells [3]): high; Rank (cytotoxicity standard) 48 h (PC12 cells [3]; PC12, 60 μM): 4; Relative growth rate (%) 48 h (PC12 cells [3]; PC12, 60 μM): 24.20 ± 0.74%; effect on survival of H2O2-damaged PC12 cells (PC12 cells [4]; 7.5 μM drug): a certain cytoprotective effect; effect on viability of CORT-damaged PC12 cells (PC12 cells [5]): did not show the potential to restore cell viability |
| O=C1/C(=C/c2cc(Cl)c(O)c(Cl)c2)CNC/C1=C\c1cc(Cl)c(O)c(Cl)c1 [CAK01, 3,5-bis ((E)-3,5-dichloro-4-hydroxybenzylidene) piperidin-4-one] | 79.62 | 0.17 | 0 | 104.22 ± 1.99 | 1 | 99.22 ± 1.65 | 0 | 101.17 ± 2.97 | 0 | 100.73 ± 3.19 | 1 | 99.46 ± 2.16 | 1 | 99.33 ± 1.79 | 0 | 101.62 ± 3.23 | 0 | 100.73 ± 2.88 | 0 | 104.04 ± 1.43 | cytotoxicity to PC12 cells (PC12 cells [3]): no significant cytotoxicity; Rank (cytotoxicity standard) 48 h (PC12 cells [3]; PC12, 60 μM): 1; Relative growth rate (%) 48 h (PC12 cells [3]; PC12, 60 μM): 85.41 ± 3.45%; effect on survival of H2O2-damaged PC12 cells (PC12 cells [4]; drug concentration below 30 μM): increased the survival rate of cells in a concentration-dependent manner; effect on viability of CORT-damaged PC12 cells (PC12 cells [5]): did not show the potential to restore cell viability |
| CN1C/C(=C\c2cc(Cl)c(O)c(Cl)c2)C(=O)/C(=C/c2cc(Cl)c(O)c(Cl)c2)C1 [CAK02, 3,5-bis ((E)-3,5-dichloro-4-hydroxybenzylidene)-1-methylpiperidin-4-one] | 223.7 | 0.09 | 0 | 102.93 ± 1.13 | 1 | 98.35 ± 1.84 | 1 | 99.40 ± 4.11 | 0 | 100.22 ± 3.73 | 1 | 95.08 ± 10.06 | 1 | 95.22 ± 1.86 | 1 | 99.48 ± 1.91 | 1 | 97.59 ± 8.36 | 1 | 88.18 ± 0.93 | cytotoxicity to PC12 cells (PC12 cells [3]): no significant cytotoxicity; Rank (cytotoxicity standard) 48 h (PC12 cells [3]; PC12, 60 μM): 1; Relative growth rate (%) 48 h (PC12 cells [3]; PC12, 60 μM): 98.48 ± 2.00%; effect on survival of H2O2-damaged PC12 cells (PC12 cells [4]; drug concentration below 30 μM): increased the survival rate of cells in a concentration-dependent manner; effect on viability of CORT-damaged PC12 cells (PC12 cells [5]): did not show the potential to restore cell viability |
| CC(C)N1C/C(=C\c2cc(Cl)c(O)c(Cl)c2)C(=O)/C(=C/c2cc(Cl)c(O)c(Cl)c2)C1 [CAK04, 3,5-bis ((E)-3,5-dichloro-4-hydroxybenzylidene)-1-isopropylpiperidin-4-one] | 57.78 | 0.04 | 1 | 98.54 ± 5.42 | 0 | 100.97 ± 3.25 | 1 | 99.95 ± 5.76 | 0 | 100.45 ± 2.96 | 1 | 99.06 ± 5.73 | 1 | 99.75 ± 1.57 | 1 | 99.66 ± 2.34 | 1 | 98.02 ± 3.00 | 0 | 101.64 ± 3.95 | cytotoxicity to PC12 cells (PC12 cells [3]): no significant cytotoxicity; Rank (cytotoxicity standard) 48 h (PC12 cells [3]; PC12, 60 μM): 0; Relative growth rate (%) 48 h (PC12 cells [3]; PC12, 60 μM): 100.17 ± 2.92%; relative proliferation rate of cells (PC12 cells [4]; 30 μM drug with 585.8 μM H2O2, 24 h): 52.12±0.88%; effect on survival of H2O2-damaged PC12 cells (PC12 cells [4]; drug concentration below 30 μM): increased the survival rate of cells in a concentration-dependent manner; effect on viability of CORT-damaged PC12 cells (PC12 cells [5]): did not show the potential to restore cell viability |
| CCN1C/C(=C\c2cc(Cl)c(O)c(Cl)c2)C(=O)/C(=C/c2cc(Cl)c(O)c(Cl)c2)C1 [CAK03, 3,5-bis ((E)-3,5-dichloro-4-hydroxybenzylidene)-1-ethylpiperidin-4-one] | 46.56 | 0.08 | 1 | 96.25 ± 0.78 | 1 | 98.96 ± 1.23 | 1 | 87.65 ± 5.86 | 1 | 94.59 ± 1.02 | 1 | 88.25 ± 5.62 | 1 | 89.84 ± 0.82 | 1 | 82.96 ± 2.83 | 1 | 95.25 ± 9.43 | 1 | 77.51 ± 4.22 | Rank (cytotoxicity standard) 48 h (PC12 cells [3]; PC12, 60 μM): 3; Relative growth rate (%) 48 h (PC12 cells [3]; PC12, 60 μM): 30.33±6.54%; effect on survival of H2O2-damaged PC12 cells (PC12 cells [4]; drug concentration below 30 μM): increased the survival rate of cells in a concentration-dependent manner; relative cell proliferation rate (PC12 cells [5]; 15 μM drug with 514.6 μM CORT): 59.15±0.51%; relative cell proliferation rate (PC12 cells [5]; 60 μM drug with 514.6 μM CORT): 59.92±1.53% |
